Data taken from patent US20240219373A1, “METHOD FOR EVALUATING EFFICACY OF ANTICANCER DRUG OR SCREENING ANTICANCER DRUG” (ORGANOIDSCIENCES LTD., priority 2021, published 2024).

Experiments:
Assay type in all cases: cell-based, human
[1] = test system: cancer organoids derived from colorectal cancer patients; assay: Overall efficacy (organoid area change, HCS) in co-culture of cancer organoids, CD8+ T cells and M1; conditions: Groups 1, 3, 6 and 8: cancer organoids:M1 fixed 1:1, CD8+ T cell ratio changes; 10 nM; 72 hours
Source text: In order to confirm whether the screening system composed of cancer organoids, CD8+ T cells and M1 as confirmed in Example 1.1 can be used to evaluate the efficacy of a drug, the death rate of cancer organoids by phagocytosis was observed after treating the system with an anti-PD-L1 antibody atezolizumab previously used as an immuno-anticancer drug, anti-CD47 antibody and a combination thereof.
Atezolizumab activates CD8+ T cells by binding to PD-L1 on cancer cells and blocking the PD-1/PD-L1 mechanism, and anti-CD47 antibody activates macrophages by binding to […] and blocking the SIRP-a/CD47 mechanism. […]
Then, they were co-cultured, and treated with 10 nM of Atezolizumab (Selleck, #A2004) which is anti-PD-L1 antibody and/or 10 nM of anti-CD47 antibody. After that, the death rate of cancer organoids or M1 was analyzed at each ratio. Herein, the ratio of the CD8+ T cells and M1 was tested in a narrower range than the ratio applied in Example 1.1, and the changes in organoid area for 72 hours after drug treatment was analyzed by HCS (High-Content Screening). After 72 hours from drug treatment, the overall efficacy was evaluated by calculating the change in the organoid area of the drug-treated group compared to the organoid area of the non-treated group.

lung cancer organoids [2] = assay: Growth and death rate of lung cancer organoids co-cultured with TILs
Description: (§1) Specifically, the inventors set a mixing ratio satisfying co-culture conditions under which (1) cancer organoids grow properly and (2) drug efficacy is well observed. Cancer organoids were prepared using cancer cells isolated from tumor tissues of lung cancer or colorectal cancer patients, and TILs obtained by co-culture with cancer organoids for 14 days according to Example 1.1 were used.
(§2) Herein, the number of organoids or TILs was set to 1 for 5.0×10^3.
(§3) In addition, for the co-cultures of cancer organoids and TILs according to the ratio above, those not treated with the drug were set as the control group (hereinafter referred to as ‘drug-untreated group’), and those treated with atezolizumab, which is currently marketed and used for a cancer treatment, as an exemplary drug were set as the experimental group (hereinafter referred to as ‘drug-treated group’). After co-culturing for 72 hours, the growth rate was measured immediately after the start of the co-culture (0 h), after 24 hours (24 h), after 48 hours (48 h) and after 72 hours (72 h), respectively, and the death rate was analyzed by the following method through the measured growth rate: Cancer organoid death rate (%)=[1−(growth rate of cancer organoids in the drug-treated group*)/(growth rate of cancer organoids in the drug-untreated group**)]×100

[3] = test system: colorectal cancer organoids; assay: Growth and death rate of colorectal cancer organoids co-cultured with TILs
Description: as §1, §2, §3

[4] = test system: colorectal cancer organoids; assay: Death rate of colorectal cancer organoids co-cultured with CD8+ T cells and Tregs; conditions: 72 h
Description: (§4) Herein, the number of organoids or cells was set to 1 for 5.0×10^3.
(§5) Cancer organoids were prepared using stem cells isolated from tumor tissue of colorectal cancer or lung cancer patients. The isolated stem cells were mixed with ECM (extracellular matrix) to grow into a 3D structure to make a dome, and then organoids were formed and used through culture. CD8+ T cells and Tregs were obtained from blood obtained from colorectal cancer or lung cancer patients. Immune cells present in the blood were differentiated, and CD8+ and Treg cells were isolated from the differentiated immune cells using a MACS (magnetic activated cell sorting) method.
(§6) Specifically, for the co-cultures of cancer organoids, CD8+ T cells and Tregs according to the mixing ratio in Table 6 above, those not treated with the drug were set as the control group (hereinafter referred to as ‘drug-untreated group’), and those treated with an atezolizumab targeting CD8+ T cells or an anti-TIGIT antibody targeting CD8+ T cells or Tregs as an exemplary drug were set as the experimental group (hereinafter referred to as ‘drug-treated group’). After co-culturing them for 72 hours, the growth rate was measured after 72 hours of drug treatment (72 h), and the death rate was analyzed by the following method through the measured growth rate.

lung cancer organoids [5] = assay: Death rate of lung cancer organoids co-cultured with CD8+ T cells and Tregs; conditions: 72 h
Description: as §4, §5, §6

[6] = test system: colorectal cancer organoids; assay: Growth and death rate of colorectal cancer organoids co-cultured with CD8+ T cells and DCs
Description: (§7) Specifically, in order to establish a co-culture system in which cancer organoids, cytotoxic T cells (hereinafter referred to as ‘CD8+ T cells’) and dendritic cells (hereinafter referred to as ‘DC’) coexist, the inventors set a mixing ratio satisfying co-culture conditions under which (1) cancer organoids grow properly and (2) drug efficacy is well observed. […] Herein, the number of organoids or cells was set to 1 for 5.0×10^3.
(§8) Cancer organoids were prepared to have a 3D structure by isolating colorectal cancer or lung cancer tissues obtained from patients into single cells and culturing them together with ECM (extracellular matrix). The formed cancer organoids were confirmed to be tumors through pathological analysis, and used after being isolated into single cells using Tryp-LE.
(§9) CD8+ T cells isolated from PBMCs were used. PBMCs were isolated from blood obtained from donors by using Ficoll, and CD8+ T cells were isolated through MACS after a T cell activation process.
(§10) DCs differentiated from iPSCs were used, and DCs were differentiated from the H9 cell line using a general method known in the art.
(§11) Specifically, for the co-cultures of cancer organoids, CD8+ T cells and DCs according to the mixing ratio in Table 7 above, those not treated with the drug were set as the control group (hereinafter referred to as ‘drug-untreated group’), and those treated with an atezolizumab targeting CD8+ T cells as an exemplary drug were set as the experimental group (hereinafter referred to as ‘drug-treated group’). Drugs were treated immediately after the start of co-culture, and the growth rate of cancer organoids was measured immediately after the start of the co-culture (0 h), after 24 hours (24 h), after 48 hours (48 h) and after 72 hours (72 h), respectively. The death rate was analyzed by the following method through the measured growth rate.

lung cancer organoids [7] = assay: Growth and death rate of lung cancer organoids co-cultured with CD8+ T cells and DCs
Description: as §7, §8, §9, §10, §11

[8] = lung cancer organoids:TILs 1:0.5
[9] = lung cancer organoids:TILs 1:1.5
[10] = colorectal cancer organoids:TILs 1:0.5
[11] = colorectal cancer organoids:TILs 1:1.5

Question: With atezolizumab as the substance, how does the “growth inhibition and death of cancer organoids (overall efficacy)” value [1] read?
Answer: high

Question: What about the “death rate of lung cancer organoids” value (lung cancer organoids [2]; [8]) of the same substance?
Answer: about 5%

Question: And the “response of lung cancer organoids (growth rate and death rate vs control group)” value (lung cancer organoids [2]; [8])?
Answer: did not respond to the drug

Question: What about the “anticancer effects on lung cancer organoids (growth, death)” value (lung cancer organoids [2]; [9]) of the same substance?
Answer: inhibiting the growth and increasing death

Question: And the “death rate of lung cancer organoids” value (lung cancer organoids [2]; [9])?
Answer: about 20%

Question: And the “death rate of lung cancer organoids” value (lung cancer organoids [2]; lung cancer organoids:TILs 1:3)?
Answer: about 5%

Question: What about the “death rate of colorectal cancer organoids” value [3, 10] of the same substance?
Answer: about 5%

Question: What about the “response of colorectal cancer organoids (growth rate and death rate vs control group)” value [3, 10] of the same substance?
Answer: did not respond to the drug

Question: What about the “anticancer effects on colorectal cancer organoids (growth, death)” value [3, 11] of the same substance?
Answer: inhibiting the growth and increasing death

Question: And the “death rate of colorectal cancer organoids” value [3, 11]?
Answer: about 10%

Question: And the “death rate of colorectal cancer organoids” value ([3]; colorectal cancer organoids:TILs 1:3)?
Answer: about 5%

Question: What about the “death rate of cancer organoids, maximum level” value (“death rate … maximum level” for short) ([4]; colorectal cancer organoids:CD8+ T cells 1:1, Treg 0.5 to 3) of the same substance?
Answer: about 10%

Question: What about the “death rate of cancer organoids” value ([4]; colorectal cancer organoids:CD8+ T cells 1:3, with Tregs) of the same substance?
Answer: about 25%

Question: And the “death rate of cancer organoids” value ([4]; colorectal cancer organoids:CD8+ T cells 1:3, without Tregs)?
Answer: about 26%

Question: And the “death rate of cancer organoids” value ([4]; colorectal cancer organoids:Tregs 1:3, without CD8+ T cells)?
Answer: about 2%

Question: What about the “death rate … maximum level” value (lung cancer organoids [5]; lung cancer organoids:CD8+ T cells 1:1, Treg 0.5 to 3) of the same substance?
Answer: about 10%

Question: And the “death rate of cancer organoids” value (lung cancer organoids [5]; lung cancer organoids:CD8+ T cells 1:3, with Tregs)?
Answer: about 25%

Question: What about the “death rate of cancer organoids” value (lung cancer organoids [5]; lung cancer organoids:CD8+ T cells 1:3, without Tregs) of the same substance?
Answer: about 27%

Question: And the “death rate of cancer organoids” value (lung cancer organoids [5]; lung cancer organoids:Tregs 1:3, without CD8+ T cells)?
Answer: about 1%

Question: And the “death rate … maximum level” value ([6]; colorectal cancer organoids:CD8+ T cells 1:0.5, DC 0.5 to 5, 72 h)?
Answer: about 5%

Question: And the “maximum death rate of cancer organoids” value ([6]; colorectal cancer organoids:CD8+ T cells 1:1, DC 0.5 to 5, 72 h)?
Answer: about 10%

Question: What about the “growth of cancer organoids” value ([6]; colorectal cancer organoids:CD8+ T cells:DCs 1:0.5:0.5 to 5) of the same substance?
Answer: did not significantly inhibit the growth

Question: And the “growth of cancer organoids” value ([6]; colorectal cancer organoids:CD8+ T cells:DCs 1:1 to 3:0.5 to 5)?
Answer: inhibited the growth

Question: And the “death rate … maximum level” value (lung cancer organoids [7]; lung cancer organoids:CD8+ T cells 1:0.5, DC 0.5 to 5, 72 h)?
Answer: about 5%

Question: And the “maximum death rate of cancer organoids” value (lung cancer organoids [7]; lung cancer organoids:CD8+ T cells 1:1, DC 0.5 to 5, 72 h)?
Answer: about 10%

Question: What about the “growth of cancer organoids” value (lung cancer organoids [7]; lung cancer organoids:CD8+ T cells:DCs 1:0.5:0.5 to 5 or 1:1:0.5 to 1) of the same substance?
Answer: did not significantly inhibit the growth

Question: And the “growth of cancer organoids” value (lung cancer organoids [7]; lung cancer organoids:CD8+ T cells:DCs 1:1:5 or 1:3:0.5 to 5)?
Answer: inhibited the growth
